{
  "source": "patent US20240083885A1",
  "about": "“COMPOSITIONS AND METHODS FOR INHIBITING M PRO PROTEASE ACTIVITY AND FOR PREVENTING AND TREATING SARS-COV-2 INFECTION” (priority 2020, published 2024)",
  "key": {"calpain I [1]": {"target": "T1, calpain I (Homo sapiens (Human), UniProt P07384)", "assay": "Host protease FRET-based enzymatic assay: calpain I", "assay_type": "biochemical", "experimental": "(§1) Enzymatic reactions against host proteases (Calpain I, Cathepisn K, Cathespsin L, Caspase-3 and Trypisn) were carried out as previously described (see, Xia, Z.; et al., ACS Pharmacol. Transl. Sci. 2021). Cathepsin B assay reaction was carried out as follows: Cathepsin B (catalog no. CTB-H5222) was diluted into 100 nM final concentration in a buffer containing 20 mM sodium acetate pH5.5, 1 mM EDTA and 2 mM DTT and the mixture was incubated for 30 min at 30° C. Activated Cathepsin B was further diluted to 500 pm in the reaction buffer (100 mM MES pH6.0, 1 mM EDTA, 2 mM DTT and 0.01% TWEEN 20)."}, "trypsin": {"test_system": "trypsin", "assay": "Host protease FRET-based enzymatic assay: trypsin", "assay_type": "biochemical", "conditions": "read-out: inhibition of trypsin (IC50)"}, "cathepsin K": {"target": "cathepsin K (Homo sapiens (Human), UniProt P43235)", "sequence (P43235 115-329 limits assumed)": "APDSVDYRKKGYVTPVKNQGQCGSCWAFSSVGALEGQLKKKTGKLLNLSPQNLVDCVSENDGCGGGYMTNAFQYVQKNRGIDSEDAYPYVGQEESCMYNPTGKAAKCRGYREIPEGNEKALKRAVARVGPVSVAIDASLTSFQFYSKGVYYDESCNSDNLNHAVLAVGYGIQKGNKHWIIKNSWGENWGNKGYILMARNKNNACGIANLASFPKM", "assay_type": "biochemical"}, "caspase-3": {"target": "caspase-3 (Homo sapiens (Human), UniProt P42574)", "sequence (P42574 29-175 limits assumed)": "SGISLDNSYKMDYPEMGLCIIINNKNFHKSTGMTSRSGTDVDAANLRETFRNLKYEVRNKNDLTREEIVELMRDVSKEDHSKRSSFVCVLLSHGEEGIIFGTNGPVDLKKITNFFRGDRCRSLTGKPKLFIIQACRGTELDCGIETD", "sequence (P42574 176-277 limits assumed)": "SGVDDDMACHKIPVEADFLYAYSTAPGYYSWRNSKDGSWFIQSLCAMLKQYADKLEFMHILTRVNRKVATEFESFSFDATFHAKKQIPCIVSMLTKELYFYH", "assay": "Host protease FRET-based enzymatic assay: caspase-3", "assay_type": "biochemical", "conditions": "read-out: inhibition of caspase-3 (IC50)", "experimental": "as §1"}, "Cathepsin L [2]": {"target": "T2, Cathepsin L (Homo sapiens (Human), UniProt P07711)", "T2 sequence (P07711 114-333 limits assumed)": "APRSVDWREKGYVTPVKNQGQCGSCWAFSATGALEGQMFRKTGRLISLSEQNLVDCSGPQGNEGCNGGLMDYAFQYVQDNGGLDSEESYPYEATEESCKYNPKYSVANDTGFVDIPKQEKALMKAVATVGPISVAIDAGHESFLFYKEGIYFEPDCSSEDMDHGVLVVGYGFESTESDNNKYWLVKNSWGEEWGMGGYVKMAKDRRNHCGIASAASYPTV", "assay": "Host protease FRET-based enzymatic assay: cathepsin L", "assay_type": "biochemical", "experimental": "The cathepsin L enzymatic assay was carried out as follows: human liver cathepsin L (EMD Millipore 219402) was activated by incubating at reaction buffer (20 mM sodium acetate, 1 mM EDTA and 5 mM DTT pH5.5) for 30 min at 30° C. Upon activation, the assay was assembled in 96-well plates with 100 μl of 300 pM cathepsin L protein in cathepsin L reaction buffer. Then 1 μl testing compound at various concentrations was added to each well and incubated at 30° C. for 30 min. The enzymatic reaction was initiated by adding 1 μl of 100 μM FRET substrate Z-Phe-Arg-AMC (the final substrate concentration is about 1 μM). The reaction was monitored in a Cytation 5 image reader with filters for excitation at 360/40 nm and emission at 460/40 nm at 30° C. for 1 hr. The IC50 values were calculated as described in above section.\nas §1"}, "Cathepsin B": {"target": "Cathepsin B (Homo sapiens (Human), UniProt P07858)", "assay": "Host protease FRET-based enzymatic assay: cathepsin B", "assay_type": "biochemical", "experimental": "as §1"}, "Cathepsin L [3]": {"target": "T2, Cathepsin L", "conditions": "read-out: Cathepsin L IC50; cited from earlier work"}, "calpain I [4]": {"target": "T1, calpain I", "conditions": "read-out: Additional off targets: Calpain I IC50; cited from earlier work"}, "SARS-CoV-2 [5]": {"test_system": "SARS-CoV-2", "assay": "microbe, parasite or virus in culture", "assay_type": "cell-based", "conditions": "read-out: antiviral EC50 against SARS-CoV-2 in Vero E6 cells"}, "SARS-CoV-2 [6]": {"test_system": "SARS-CoV-2", "assay": "microbe, parasite or virus in culture", "assay_type": "cell-based", "conditions": "Caco2-hACE2 cells; read-out: antiviral EC50 against SARS-CoV-2 in Caco2-hACE2 cells"}},
  "note": "Where two headings read alike, the source gives them in different places.",
  "data": [
    {"smiles": "CC(C)C[C@H](NC(=O)OCc1ccccc1)C(=O)N[C@@H](CC1CCNC1=O)C(O)S(=O)(=O)[O-].[Na+]", "note": "(some centres unmarked) [GC-376, reference compound]", "values": [
      {"measurement": "inhibition of calpain I", "setting": "calpain I [1]", "result": "potent inhibition"},
      {"measurement": "IC50", "setting": "trypsin", "result": "[…]"},
      {"measurement": "CC50", "setting": "Vero E6 cells", "result": "> 125000", "unit": "nM"},
      {"measurement": "inhibition of cathepsin K", "setting": "cathepsin K", "result": "potent inhibition"},
      {"measurement": "IC50", "setting": "caspase-3", "result": "> 20000", "unit": "nM"},
      {"measurement": "inhibition of cathepsin L (IC50)", "setting": "Cathepsin L [2]", "result": "potent inhibition"},
      {"measurement": "inhibition of cathepsin B", "setting": "Cathepsin B", "result": "potent inhibition"},
      {"measurement": "IC50", "setting": "Cathepsin L [3]", "result": 0.99, "unit": "nM"},
      {"measurement": "IC50", "setting": "calpain I [4]", "result": 74, "unit": "nM"},
      {"measurement": "EC50", "setting": "SARS-CoV-2 [5]", "result": 1510, "unit": "nM"},
      {"measurement": "EC50", "setting": "SARS-CoV-2 [6]", "result": 2900, "unit": "nM"}
    ]}
  ]
}
